Measurements from PMC8532876, “Can Immobilized Artificial Membrane Chromatography Support the Characterization of Antimicrobial Peptide Origin Derivatives?” (Antibiotics, 2021).
Ends that are not written are not given here.

Assay: IAM-HPLC, chromatographic hydrophobicity index on an immobilized artificial membrane column
Type: physicochemical
Conditions: IAM.PC.DD2 column, gradient 0–85% acetonitrile in 10-mM phosphoric buffer pH 7.4, 30.0 °C; calculated from retention time with calibration curve
Description: All HPLC experiments were carried out using a Prominence-1 LC-2030C 3D HPLC system (Shimadzu, Tokyo, Japan) equipped with an IAM.PC.DD2 column (10 mm × 4.6 mm; particle size 10.0 µm with an IAM guard column; Regis Technologies, Austin Ave, Morton Grove, IL, USA) and diode array detection (DAD). The HPLC system was controlled by LabSolution software (version 5.90, Shimadzu, Japan). The stock solutions of the solutes were diluted to obtain 100-µg/mL concentrations, and the injected volume was 10 µL, which was used for the analytes. The IAM-HPLC analyses were performed with a linear gradient of 0–85% in phase B (where phase A was 10-mM phosphoric buffer at pH 7.4, and phase B was acetonitrile) at a flow rate of 1.5 mL/min. The ultrapure water used for the mobile phase preparation was purified by the Millipore Direct-Q 3 UVWater Purification System (Millipore Corporation, Bedford, MA, USA). The other reagents used for the preparation of the mobile phase: acetonitrile, sodium phosphate dibasic dehydrate, and sodium phosphate monobasic monohydrate (Sigma-Aldrich, Steinheim, Germany) were analytical grade. During the chromatographic analysis, the temperature of the column was constant at 30.0 °C, and the analysis time was 6.5 min. The CHIAM indices of the target solutes were obtained using a calibration set of the reference substances using the protocol developed by Valko and coworkers. The reference substances were purchased, respectively: octanonophenone and butyrophenone acetanilide (Alfa Aesar, Haverhill, MA, USA); acetaminophen, acetophenone, levofloxacin, and ciprofloxacin (Sigma-Aldrich, Steinheim, Germany); and heptanophenone, hexanophenone, valerophenone, propiophenone, and acetophenone (Acros Organic, Pittsburg, PA, USA). Figure 2 presents a correlations plot of the CHIIAM indices of the model substances and experimentally determined retention times.

Row | Compound | CHIIAM
1 | GLFDVIK-NH2 [(1–7) Citropin, analog of citropin 1.1] | 42.15
2 | C[C@H]1COc2c(N3CCN(C)CC3)c(F)cc3c(=O)c(C(=O)O)cn1c23 [Levofloxacin] | 24.88
3 | GLFDVIKASVIGGL-NH2 [(1–7)–(10–16) Citropin, analog of citropin 1.1] | 37.09
4 | KVASVIGGL-NH2 [(8–16) Citropin, analog of citropin 1.1] | 45.95
5 | DVIKKVASVIGGL-NH2 [(4–16) Citropin, analog of citropin 1.1] | 38.24
6 | O=C(O)c1cn(C2CC2)c2cc(N3CCNCC3)c(F)cc2c1=O [Ciprofloxacin] | 19.70
7 | GLFDVVIGGL-NH2 [(1–5)–(12–16) Citropin, analog of citropin 1.1] | 28.66
8 | DVIKKVASVIG-NH2 [(4–14) Citropin, analog of citropin 1.1] | 27.85

Assay: not given
Parameters: method as in PMID 10906732, PMID 27084527
Conditions: model substances of the IAM-HPLC calibration curve, protocol of Valko and coworkers ref 13, 14; cited from earlier work

Row | Compound | CHIIAM of calibration set reference substances
9 | CC(=O)Nc1ccc(O)cc1 [acetaminophen] | 2.90
10 | CCC(=O)c1ccccc1 [propiohenone] | 25.90
11 | CCCCCC(=O)c1ccccc1 [hexanophenone] | 41.80
12 | CC(=O)Nc1ccccc1 [acetanilidine] | 11.50
13 | CC(=O)c1ccccc1 [acetable] | 17.20
14 | CCCCC(=O)c1ccccc1 [valerophenone] | 37.30
15 | CCCCCCCC(=O)c1ccccc1 [octanophenone] | 49.4
16 | CCCC(=O)c1ccccc1 [butyrophenone] | 32.00
17 | CCCCCCC(=O)c1ccccc1 [heptanophenone] | 45.70
